Measurements published in article PMC9705834, “Mitochondrial Targeting Domain Homologs Induce Necrotic Cell Death Via Mitochondrial and Endoplasmic Reticulum Disruption” (Journal of Microbiology and Biotechnology, 2021).

Experiments:
[1] = cited from earlier work
Description: Within few minutes after the treatment with the MTD peptide, intracellular calcium concentration increases, and extracellular calcium penetrates through the mitochondrial permeability transition (mPT) pore. With the formation of blebs, the calcium concentration decreases and mitochondrial reactive oxidative species (ROS) begin to increase. MTDs also induce mitochondrial swelling, fragmentation, and endopla ... || Bnip1 MTD-like motif (B1MLM), derived from another BH3-only protein, Bnip1, also induces cell death in the same manner. Bnip1 interacts with […] Bcl-2 family proteins and the adenoviral antiapoptotic protein, E1B 19 kDa. The BH3 domain of Bnip1 is closely involved in apoptosis and mitochondrial fission carried out by Drp1 [14]. B1MLM has a similar arrangement of leucine residues as that of MTD. […] Similar to MTD, B1MLM induces a sharp rise in ca ... || MTD and B1MLM peptides induce necrotic cell death when associated with R8. R8 is a well-known cell penetrating motif. […] To evaluate the cytotoxicity of MTD homologs, we synthesized these peptides and fused R8 at the N-terminus.

HeLa cells = test: MTS assay of cell viability after peptide treatment; format: cell-based; details: HeLa cells at 90% confluency, peptide in phenol red-free DMEM for 1 h, absorbance 450 nm
Protocol: HeLa cells were purchased from the Korean Cell Line Bank (Korea) and cultured in Dulbecco’s modified Eagle’s medium (DMEM) containing 10% fetal bovine serum and 1× penicillin-streptomycin (100 IU/ml and 100 μg/ml, Gibco-Thermo Fisher, USA) at 37°C in a humidified 5% CO2 atmosphere.
HeLa cells were cultured in 96-well plates to 90% confluency and treated with peptides mixed in phenol red-free DMEM for 1 h. After incubation, MTS solution (20 μl, Promega, USA) was added and the absorbance of each well was measured at 450 nm.
Fig. 1 Mitochondrial targeting domain (MTD) homologs induce necrotic cell death as in MTD. A. (Left panel) There are several mitochondrial targeting domain (MTD) homologs in human genes. They were searched by protein basic local alignment search tool (BLAST) on National Center for Biotechnology Information (NCBI) and sorted according to percent identity with MTD. Each amino acid was colored according to the ClustalX color scheme (hydrophobic, blue; positive charge, red; negative charge, magenta; polar, green; glycine, orange; proline, yellow; aromatic, cyan; cysteine, pink). (Right panel) The cytotoxicity of mitochondrial targeting domain (MTD) homologs is determined by its amino acid sequence. MTD homologs were grouped according to their cytotoxicity, then sorted according to percent identity with MTD. Each amino acid was colored according to the ClustalX color scheme (hydrophobic, blue; positive charge, red; negative charge, magenta; polar, green; glycine, orange; proline, yellow; aromatic, cyan; cysteine, pink). B. Cell viabilities were determined by MTS assay 1 h after treating HeLa cells with MTD homologs fused with octa-arginine (R8). HeLa cells treated with R8:M-LIPRIN, R8:MST3GAL3, R8:M-TRRAD, and R8:M-SDAD1(left panel). HeLa cells treated with eM-GAL3, R8:MGAL3, and R8:M-ST13 (right panel). C, HeLa cells treated with R8:M-SDAD1 (5 μM), R8:M-TRRAD (20 μM), and R8:M-ST3GAL3 (40 μM), then observed for 10 min using differential interference contrast microscopy. D, HeLa cells were treated with R8:M-SDAD1 (10 μM), R8:M-TRRAD (20 μM), and R8:M-ST3GAL3 (40 μM), with and without DIDS (200 μM); after 1 h, cell viability was determined by MTS assay. […]

[2] = previous study; cited from earlier work

Row | Sequence | cytotoxicity / cell viability as the concentration increased (Fig. 1B) (HeLa cells) | other results
1 | KLLNLISKLF [MTD, mitochondrial targeting domain of Noxa, as a peptide without R8] |  | cell killing activity of MTD peptide without R8 ([1]; previous study): did not show any cell killing activity
2 | KLNFRQKLLNLISKLFCSGT [eMTD, extended MTD: MTD with its flanking region] |  | necrotic cell death ([1]; MTD with its flanking region): strongly induces necrotic cell death
3 | LLQYNHRVKKLNEISKLGISGDIDLTSASYTMI [eM-GAL3, M-GAL3 with a flanking region similar to that of eMTD, without R8] | hardly altered cell viability | 
4 | RRRRRRRREAKLLELTSKLRKA [R8:M-LIPRIN, MTD homolog found in LIPRIN, fused with R8 at the N-terminus] | hardly altered cell viability | 
5 | RRRRRRRRKLLNLISKLF [R8:MTD] |  | disruption of ER and mitochondria [2]: induced the disruption of ER and mitochondria
6 | RRRRRRRRNPKVMNLISKLSAK [R8:M-ST13, MTD homolog found in ST13, fused with R8 at the N-terminus] | hardly altered cell viability | 
7 | RRRRRRRRVKKLNEISKLGISG [R8:M-GAL3, MTD homolog found in GAL3, fused with R8 at the N-terminus] | hardly altered cell viability | 
